{"source": "patent US8399466B2", "about": "“Composition for regenerative treatment of cartilage disease” (Mitsubishi Tanabe Pharma Corporation, priority 2001, dated 2013)", "key": {"articular chondrocytes": {"tested_on": "articular chondrocytes", "experiment": "Increase of matrix production of articular chondrocytes (Alcian blue staining of proteoglycan)", "assay_type": "cell-based, rabbit", "conditions": "for Proteoglycan Production (%): cultivation until day 5, vehicle = 100", "procedure": "Four NZW line rabbits (Kitayama Labes., Co Ltd.; male; 4-week-old) were sacrificed with bleeding under ether anesthesia and femur knee joints were collected aseptically. The collected knee joints were stored in phosphate buffer (pH 7.2) containing 0.2% glucose and only the cortical layer of knee joint was scrapped with a surgical knife into a 50 ml tube containing phosphate buffer (pH 7.2) containing 0.2% glucose. The collected knee joint cortical layer was cut into as small sections as possible on a dish with a razor and shaken at 37° C. for 15 minutes in phosphate buffer containing 0.2% glucose, supplied with 10× trypsin-ethylenediamine tetraacetic acid (EDTA)·4 Na salt (GIBCO; Cat. No. 15400-054) (50 ml, with 100 mg of trypsin and 40 mg of EDTA·4Na; pH 7.2). After shaking, the sample was centrifuged (1,400 rpm) to collect precipitates, and the precipitates were washed twice with 40 ml of phosphate buffer containing 0.2% glucose. The washed precipitates were combined with 40 ml of serum-free α-minimum essential medium (MEM: GIBCO; Cat: No. 12571-063) containing 60 mg of collagenase for cell diffusion (Wako Pure Chemical Industries, Ltd., 034-10533) and transferred to a 100 ml beaker containing a sterilized stirrer bar. Under stirring with the stirrer bar, the collagenase digestion was carried on for about 1 hour in a CO2 incubator at 37° C. Cartilage fragments were removed from the collagenase-treated cells using a […] Cell Strainer ([FALCON; Cat. No. 2340]). To the residual treated cells was added 10 ml of α-MEM medium containing 10% fetal calf serum (FCS), and centrifuged (1,400 rpm). The precipitates were washed with 10% FCS-αMEM medium twice, suspended in appropriate volume of the same medium and the resultant suspension was seeded into collagen type II (Wako Pure Chemical Industries, Ltd., 033-13901)-coated plates (48 well) at 20,000 cells/well. On the next day, the medium was replaced with 10% FCS-αMEM medium.\nWhen cells reached to confluent after the medium exchange procedure above, the medium for test group was replaced with test compound-containing medium (including 0.1% dimethylsulfoxide as a vehicle). As a medium to which a test compound is added, 10% FCS-αMEM medium containing 0.2 mM ascorbic acid was used. The day on which test compound-containing medium was added for the first time was defined as “day 1”. The medium exchange with the same medium was again conducted at day 3 and the cultivation continued until day 5. As to the control group, the medium was exchanged at the same time using the same medium as the test group except that it is free of test compound (containing vehicle only), and the cultivation was carried out in the same manner. After completion of cultivation, the supernatant was removed from the culture medium. Cells were fixed by addition of 0.25 ml of neutral buffer containing 4% paraformaldehyde and incubation for 2 hours. Cells were washed three times with 1 ml of phosphate buffer (pH 7.2) and then stained for 4 hours with 0.1% Alcian blue 8GX (Sigma; A3157) dissolved in 0.1 M hydrochloric acid, which Alcian blue selectively stains cartilage matrix proteoglycan. After staining, the cells were washed 3 times with 1 ml of phosphate buffer (pH 7.2). Alcian blue which had stained cartilage matrix was dissolved with 0.25 ml of aqueous 6 M guanidine hydrochloride solution and a portion of the solution was used to determine the absorbance at 620 nm. The amounts of Alcian blue used for staining was calculated from the absorbance, which in turn was used for the estimation of the amount of matrix (proteoglycan)."}, "[1]": {"tested_on": "cAMP-hydrolyzing PDE expressed in articular cartilage (PDE4-related peaks)", "experiment": "cAMP hydrolyzing activity (PDE activity) of Mono Q fractions of articular cartilage extract, radio-labeled nucleic acid assay", "assay_type": "biochemical, rabbit", "conditions": "final concentration 1×10^−5 M; FIG. 1", "procedure": "Four NZW line rabbits (Kitayama Labes., Co Ltd.; male; 4-week-old) were sacrificed with bleeding under ether anesthesia and femur knee joints were collected aseptically. The collected knee joints were stored in phosphate buffer (pH 7.2) containing 0.2% glucose and only the cortical layer of knee joint portion was scrapped with a knife into a 50 ml tube containing phosphate buffer (pH 7.2) containing 0.2% glucose. The collected knee joint cortical layer was cut into as small sections as possible on a dish with a razor, washed with ice-cold phosphate buffer and homogenized with a homogenizer (Polytron: Kinematica A.G.) in homogenization buffer (20 mM Tris-HCl, pH 7.4, 2 mM magnesium acetate, 0.3 mM calcium chloride, 1 mM dithiothreitol, 40 μM leupeptin, 1.3 mM benzamidine, 0.2 mM phenylmethylsulfonyl fluoride and 1 mM sodium azide). The resultant homogenate was centrifuged (100,000×g, 60 minutes) to separate supernatant.\nThe supernatant was subjected to Mono Q Sepharose High Performance column (Amersham Pharmacia Biotech) previously equilibrated with an elution buffer (20 mM Tris-HCl, pH 7.4, 1 mM calcium chloride, 1 mM dithiothreitol, 2 μM leupeptin, 5 mM benzamidine). […]\nThe determination of PDE activity was performed by a radio-labeled nucleic acid assay. […] To each eluate was added a liquid scintillation cocktail and the radio activity was measured."}}}
{"compound": "COc1ccc(C2CNC(=O)C2)cc1OC1CCCC1", "note": "(stereo not shown) [Compound (44)]", "values": [{"measurement": "Proteoglycan Production (%)", "setting": "articular chondrocytes; 1 × 10^−4 M", "result": 116, "unit": "%"}, {"measurement": "Proteoglycan Production (%)", "setting": "articular chondrocytes; 1 × 10^−5 M", "result": 125, "unit": "%"}, {"measurement": "matrix production promoting activity", "setting": "articular chondrocytes; summary of Table 1", "result": "exert matrix production promoting activity"}, {"measurement": "inhibition of cAMP hydrolyzing activity of the four peaks", "setting": "[1]", "result": "strongly inhibited"}]}
